pIC50, pKi: −log10 of the molar value.
What was measured:
[1] = biological target: T1, Kynureninase (Rattus norvegicus, UniProt P70712); assay: Compound was tested for the inhibition of mammalian kynureninase in rat liver; assay type: tissue-based
T1 sequence (P70712 whole entry): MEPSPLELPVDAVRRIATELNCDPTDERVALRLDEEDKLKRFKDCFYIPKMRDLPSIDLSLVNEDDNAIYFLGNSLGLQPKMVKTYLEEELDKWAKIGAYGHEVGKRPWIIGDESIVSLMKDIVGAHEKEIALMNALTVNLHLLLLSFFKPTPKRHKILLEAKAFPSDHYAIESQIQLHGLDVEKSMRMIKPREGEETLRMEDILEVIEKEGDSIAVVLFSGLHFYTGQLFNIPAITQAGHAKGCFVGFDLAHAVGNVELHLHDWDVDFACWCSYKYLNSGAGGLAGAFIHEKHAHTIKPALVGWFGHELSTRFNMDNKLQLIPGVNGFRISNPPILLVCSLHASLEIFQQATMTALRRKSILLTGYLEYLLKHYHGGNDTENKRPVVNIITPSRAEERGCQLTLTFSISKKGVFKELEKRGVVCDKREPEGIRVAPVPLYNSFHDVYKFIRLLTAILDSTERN

[2] = biological target: T1, Kynureninase; assay: Compound was tested for the binding affinity against kynureninase in rat liver

pIC50 [1] | pKi [2] | SMILES
4.70 |  | Nc1c(F)cccc1S(=O)(=O)CC(N)C(=O)O (stereo not given)
4.96 |  | Cc1ccc(N)c(S(=O)(=O)CC(N)C(=O)O)c1 (stereo not given)
4.54 |  | COc1cccc(S(=O)(=O)CC(N)C(=O)O)c1N (stereo not given)
4.44 | 4.74 | Nc1ccccc1S(=O)(=O)CC(N)C(=O)O (stereo not given)

Source: ChEMBL document CHEMBL1130617, “S-aryl cysteine S,S-dioxides as inhibitors of mammalian kynureninase” (Bioorg Med Chem Lett, 1998)
